Reference: patent publication EP0182152B1, “Antitumor antibiotics (LL-E33288 Complex)” (AMERICAN CYANAMID COMPANY, priority 1984, dated 1986)

Assays:
[1] = test system: lymphocytic leukemia P388; experiment: Lymphocytic Leukemia P388 Test; type: in vivo, BDF1 mice; settings: Table IV, i.p. days 1, 5 and 9
Source text: (§1) Certain in vivo testing systems and protocols have been developed by the National Cancer Institute for testing compounds to determine their suitability as anti-neoplastic agents. These have been reported in "Cancer Chemotherapy Reports", Part III, Vol. 3, No. 2 (1972), Geran, et al. These protocols have established standardized screening tests which are generally followed in the field of testing for antitumor agents. Of these systems, lymphocytic leukemia P388, melanotic melanoma B16, L1210 leukemia and colon 26 adenocarcinoma are particularly significant to the present invention. These neoplasms are utilized for testing as transplantable tumors in mice. Generally, significant anti-tumor activity, shown in these protocols by a percentage increase of mean survival times of the treated animals (T) over the control animals (C), is indicative of similar results in human leukemias and solid tumors.
The animals used were BDF1 mice, all of one sex, weighing a minimum of 17 g and all within a 3 g weight range. There were 5 or 6 mice per test group. The tumor transplant was by intraperitoneal injection of 0.5 ml of dilute ascitic fluid containing 10^6 cells of lymphocytic leukemia P388. LL-E33288 antibiotics were tested in the P388 system both as the individual β1-Br and […] components and as a complex of all components (Bromo-complex). The test compounds were administered intrapertioneally at a volume of 0.5 ml in 0.2% Klucel in normal saline on days 1, 5 and 9 (relative to tumor inoculation) at the indicated doses. The mice were weighed and the survivors recorded on a regular basis for 30 days. The median survival time and the ratio of survival time for treated (T)/control (C) animals were calculated. The positive control compound was Cisplatin given as an intraperitioneal injection in 0.5 ml of 0.2% Klucel on days 1, 5 and 9 at the indicated doses.
If T/C X 100 (%) is 125 or over, the tested compound is considered to have significant anti-tumor activity.
(§2) In the same manner, the following iodo-components were tested for antineoplastic activity.

[2] = test system: melanotic melanoma B16; experiment: Melanotic Melanoma B16 Test; type: in vivo, BDF1 mice; settings: Table V, i.p. days 1 through 9, control 16 days
Source text: as §1
The animals used were BDF1 mice, all of the same sex, weighing a minimum of 17 g and all within a 3 g weight range. There are normally 6 animals per test group. A 1 g portion of melanotic melanoma β16 tumor was homogenized in 10 ml of cold balanced salt solution and a 0.5 ml aliquot of the homogenate was implanted intraperitoneally into each of the test mice. LL-E33288 antibiotics were tested in the β16 system both as the individual β1-Br and γ1-Br components and as a complex of all components (Bromo-complex). The test compounds were administered intraperitioneally on days 1 through 9 (relative to tumor inoculation) at various doses. The mice were weighed and survivors recorded on a regular basis for 60 days. The median survival time and the ratio of survival time for treated (T)/control (C) animals were calculated. The positive control compounds were Cisplatin or Adriamycin. The results of this test appear in Table V. If T/C X 100 (%) is 125 or over, the tested compound is considered to have significant anti-tumor activity.
as §2

[3] = test system: lymphocytic leukemia L1210; experiment: Lymphocytic Leukemia L1210 Test; type: in vivo, BDF1 mice; settings: Table VI, i.p., control 8.3 days
Source text: as §1
The animals used were BDF1 mice, all of one sex, weighing a minimum of 17 g and all within a 3 g weight range. There were 6 mice in each test group and 18 in control groups. The tumor transplant was by intraperitoneal injection of 0.5 ml of lymphocytic leukemia L1210 at a concentration of 10^5 cells per mouse. LL-E33288 antibiotics were tested in the L1210 system both as the individual β1-Br component and as a complex of all components (Bromo-complex). The test compounds were administered on days 1, 5 and 9 or days 1 through 9 (relative to tumor inoculation) at various doses. The mice were weighed and survivors recorded on a regular basis for 30 days. The median survival time and the ratio of survival time for treated (T)/control (C) animals were calculated. The positive control compound was 1,4-dihydroxy-5,8-bis[[2-(2-hydroxyethylamino)ethyl]amino]anthraquinone dihydrochloride or Cisplatin given intraperitoneally at the indicated dose. If T/C X 100 (%) is 125 or over, the tested compound is considered to have significant anti-tumor activity.
as §2

[4] = test system: Colon 26 tumor; experiment: Colon 26 Adenocarcinoma Test; type: in vivo, CD2F1 female mice
Source text: as §1
The animals used were CD2F1 female mice weighing a minimum of 17 g and all within a 3 g weight range. There were 5 or 6 mice per test group with three groups of 5 or 6 animals used as untreated controls for each test. The tumor implant was by intraperitoneal (or subcutaneous) injection of 0.5 ml of a 2% Colon 26 tumor brei in Eagle's MEM medium containing antibiotics. LL-E33288 antibiotics were tested in the Colon 26 system as a complex (Bromo-complex) of all components. The test compounds were administered intraperitoneally on days 1, 5 and 9 (relative to tumor implant doses). The mice were weighed and deaths recorded on a regular basis for 30 days. The median survival times for treated (T)/control (C) animals were calculated. The positive control compound was Cisplatin. If T/C X 100 (%) is 130 or over, the tested compound is considered to have significant anti-tumor activity.
as §2

[5] = dose 0.06 mg/kg, control 10.6 days
[6] = dose 0.06 mg/kg, control 12.4 days
[7] = dose 0.25 mg/kg, control 10.6 days
[8] = dose 0.4 mg/kg, control 12.4 days
[9] = dose 1.0 mg/kg, control 10.6 days
[10] = dose 1.0 mg/kg, control 12.4 days
[11] = Table VII, i.p. days 1, 5 and 9, dose 0.25 mg/kg, control 18.6 days
[12] = Table VII, i.p. days 1, 5 and 9, dose 0.5 mg/kg, control 18.6 days
[13] = Table VII, i.p. days 1, 5 and 9, dose 1 mg/kg, control 18.6 days
[14] = Table XII, dose 0.5 mg/kg, control 18.5 days
[15] = Table XII, dose 1 mg/kg, control 18.5 days
[16] = Table XII, dose 2 mg/kg, control 18.5 days

For `N.N.[Cl][Pt][Cl]` [Cisplatin, reference compound], the “Median Survival” value [1, 5] was 14.5 days, the “T/C x 100” value [1, 5] was 137% and the “Median Survival” value [1, 6] was 15 days. The “T/C x 100” value [1, 6] was 121%, the “Median Survival” value [1, 7] was 15 days and the “T/C x 100” value [1, 7] was 142%. The “Median Survival” value [1, 8] was 19 days, the “T/C x 100” value [1, 8] was 153% and the “Median Survival” value [1, 9] was 21.5 days. The “T/C x 100” value [1, 9] was 203%, the “Median Survival” value [1, 10] was 25.5 days and the “T/C x 100” value [1, 10] was 206%. The “Median Survival” value ([2]; dose 0.05 mg/kg) was 21.5 days, the “T/C x 100” value ([2]; dose 0.05 mg/kg) was 134% and the “Median Survival” value ([2]; dose 0.1 mg/kg) was 23 days. For the same compound, the “T/C x 100” value ([2]; dose 0.1 mg/kg) was 144%, the “Median Survival” value ([2]; dose 0.2 mg/kg) was 25 days and the “T/C x 100” value ([2]; dose 0.2 mg/kg) was 156%. For the same compound, the “Median Survival” value ([2]; dose 0.4 mg/kg) was 25 days, the “T/C x 100” value ([2]; dose 0.4 mg/kg) was 156% and the “Median Survival” value ([3]; dose 1.25 mg/kg) was 11 days. For the same compound, the “T/C x 100” value ([3]; dose 1.25 mg/kg) was 133%, the “Median Survival” value ([3]; dose 2.5 mg/kg) was 12 days and the “T/C x 100” value ([3]; dose 2.5 mg/kg) was 145%. For the same compound, the “Median Survival” value ([3]; dose 5 mg/kg) was 7.5 days, the “T/C x 100” value ([3]; dose 5 mg/kg) was 90% and the “Median Survival” value [4, 11] was 37.5 days. For the same compound, the “T/C x 100” value [4, 11] was 202%, the “Median Survival” value [4, 12] was 38.5 days and the “T/C x 100” value [4, 12] was 207%. For the same compound, the “Median Survival” value [4, 13] was 29 days, the “T/C x 100” value [4, 13] was 156% and the “Median Survival” value [4, 14] was 23.5 days. For the same compound, the “T/C x 100” value [4, 14] was 127%, the “Median Survival” value [4, 15] was 27.5 days and the “T/C x 100” value [4, 15] was 149%. The “Median Survival” value [4, 16] was 15.5 days and the “T/C x 100” value [4, 16] was 84%.
